Experimental data as given in patent US20260272865A1, “HYDROXYPHENYL PROPANOATE COMPOUNDS FOR TUMOUR IMMUNOTHERAPY, COMPOSITIONS AND USES THEREOF” (UTI LIMITED PARTNERSHIP, priority 2023, published 2026).

What was measured:
[1] = tested on: NF-κB pathway; test: NF-κB activity reporter assay in THP1-Dual cells; assay type: cell-based, human; conditions: for NF-κB pathway activation combined with PRR agonists: LPS or other NF-κB pathway inducers; for NF-κB pathway activation when treated with LPS: 16 hours, vs vehicle
Method: NF-κB and IRF induction assays were performed using mouse RAW-Dual™ (InvivoGen) and human THP1-Dua™ (InvivoGen) reporter cell lines. The cells were resuspended in freshly prepared test media at a concentration of 1.0×10^6 cells/mL for RAW-Dual™ and 5.0×10^5 cells/mL for THP1-Dual™. 180 μL of cells were seeded per well in a standard 96-well plate and optimized the concentration of several PRR agonists that trigger NF-κB and IRF. To test the metabolite effect on these pathways, 10 μL of the optimized receptor agonist, 10 μL of the 2 mM metabolite solution or vehicle was added to each well, making a final volume of 200 μL. To neutralize IL-1 receptor signalling, anti-IL-1a (clone 7D4, InvivoGen) and anti-IL-1β (clone 4H5, InvivoGen) antibodies were added and IgG1 isotype (clone T8E5, InvivoGen) was used as a control, as per manufacturer's recommendation. NF-κB activity was determined by measuring secreted embryonic alkaline phosphatase (SEAP) levels using QUANTI-Blue™ solution (InvivoGen). After aliquoting 20 μL of cell culture supernatant into 180 μL of QUANTI-Blue™, the conversion of color to blue was monitored and SEAP levels were determined using a SpectraMax i3 from Molecular Devices at 650 nm. To assess IRF induction, secreted lucia luciferase levels were measured in the culture medium using QUANTI-Luc™ solution (InvivoGen). 20 μL of cell culture supernatant was aliquoted into 50 μL of QUANTI-Luc™ solution and the luminescence reading was immediately recorded using the SpectraMax i3.

[2] = tested on: IRF pathway; assay type: cell-based, human
[3] = biological target: T1, GSDMD (Homo sapiens, UniProt P57764); test: Western blot of GSDMD cleavage in THP-1 cells; assay type: cell-based
T1 construct: host or cells: THP1-Dual cells (human monocytic reporter line)
T1 sequence (P57764 1-484): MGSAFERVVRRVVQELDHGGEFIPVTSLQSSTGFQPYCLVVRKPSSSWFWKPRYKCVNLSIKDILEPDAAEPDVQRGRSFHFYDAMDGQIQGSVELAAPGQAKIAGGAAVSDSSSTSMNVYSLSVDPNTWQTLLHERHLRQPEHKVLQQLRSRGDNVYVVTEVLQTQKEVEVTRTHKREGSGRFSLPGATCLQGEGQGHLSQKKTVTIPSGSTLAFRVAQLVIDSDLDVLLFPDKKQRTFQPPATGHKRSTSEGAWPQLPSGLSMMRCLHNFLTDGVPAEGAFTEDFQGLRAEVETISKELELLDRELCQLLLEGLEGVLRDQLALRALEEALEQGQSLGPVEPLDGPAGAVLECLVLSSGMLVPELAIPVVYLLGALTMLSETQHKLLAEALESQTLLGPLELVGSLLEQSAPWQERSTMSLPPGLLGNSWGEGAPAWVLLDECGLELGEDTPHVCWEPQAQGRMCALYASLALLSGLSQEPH
Method: Cells were collected and lysates prepared using total lysis buffer (50 mM Tris-HCl, pH 8.0; 150 mM NaCl; 1% Triton X-100; 1% SDS). The supernatant was obtained by centrifuging at 10,000 RPM for 10 minutes at 4° C. using a benchtop PCR centrifuge. Protein quantification was performed using the Bio-Rad DC Protein Assay Kit (Bio-Rad, NC, USA). Proteins were separated using 12% SDS-PAGE gels and transferred to a PVDF membrane using the Bio-Rad Trans-turbo semi-dry transfer apparatus at 25 V/1 A for 1 hour. The membrane was blocked with Tris-buffered-saline-Tween-20™ (TBST) containing 5% skim milk for 30 minutes at room temperature. The membrane was then probed overnight at 4° C. with rabbit monoclonal recombinant anti-GSDMD antibody (ab210070, Abcam), anti-cleaved N-terminal GSDMD antibody (ab215203, Abcam) and mouse anti-actin monoclonal antibody (MAB1501, MilliporeSigma) for human FL-GSDMD, CL-GSDMD and actin. The next day, the membranes were washed with TBST three times and probed with goat anti-rabbit (1706515, Bio-Rad) or goat anti-mouse (1706516, Bio-Rad) horseradish peroxidase-conjugated IgG for 1 hour at room temperature. The secondary antibodies were diluted in TBST containing 5% (w/v) skim milk at 1:5000 and the membranes washed with TBST before detecting the proteins of interest using the Clarity™ Western ECL Substrate (Bio-Rad) on a Chemidoc-IT Imager (UVP, Upland, CA, USA).

[4] = tested on: influenza virus; conditions: early study, Science 357, 498-502 (2017); cited from earlier work

| SMILES | NF-κB pathway activation when treated with LPS [1] | other results |
| --- | --- | --- |
| O=C(O)CCc1cccc(O)c1 [Compound I-2, 3-(3-hydroxyphenyl)propanoic acid] | potentiates | NF-κB pathway activation combined with PRR agonists [1]: potentiate; IRF pathway activation combined with PRR agonists [2]: potentiate; GSDMD cleavage in the presence of LPS or LPS+NG stimulation [3]: facilitating gasdermin D cleavage |
| O=C(O)CCc1ccc(O)cc1 [Compound I-3, 3-(4-hydroxyphenyl)propanoic acid] | potentiates | NF-κB pathway activation combined with PRR agonists [1]: potentiate; IRF pathway activation combined with PRR agonists [2]: potentiate; GSDMD cleavage in the presence of LPS or LPS+NG stimulation [3]: facilitating gasdermin D cleavage; influenza virus pathology [4]: protects from influenza virus pathology; type 1 interferon signalling [4]: primes the amplification loop of type 1 interferon signalling |
| O=C([O-])CCc1ccc(O)cc1.[Na+] [Compound I-4, sodium 3-(4-hydroxyphenyl)propionic acid] | significantly enhanced the activation |  |
| COC(=O)CCc1ccc(O)cc1 [Compound I-5, methyl 3-(4-hydroxyphenyl) propionate] | significantly enhanced the activation |  |
| CCOC(=O)CCc1ccc(O)cc1 [Compound I-6, ethyl 3-(4-hydroxyphenyl)propionate] | significantly enhanced the activation |  |
| O=C(CCc1ccc(O)cc1)ON1C(=O)CCC1=O [Compound I-7, 3-(4-hydroxyphenyl)propionic acid N-hydroxysuccinimide ester] | significantly enhanced the activation |  |
| O=C(O)CCc1ccc(F)cc1 [II-1, 3-(4-fluorophenyl)propionic acid] | significantly enhanced the activation |  |
| O=C(O)CCc1ccc(Cl)cc1 [II-2, 3-(4-chlorophenyl)propionic acid] | significantly enhanced the activation |  |
| Nc1ccc(CCC(=O)O)cc1 [II-3, 3-(4-aminophenyl)propionic acid] | significantly enhanced the activation |  |
| Cc1ccc(CCC(=O)O)cc1 [II-4, 3-(4-methylphenyl)propionic acid] | significantly enhanced the activation |  |
| O=C(O)CCCc1ccc(O)cc1 [III-1, 4-(4-hydroxyphenyl)butanoic acid] | significantly enhanced the activation |  |
| O=C(O)CCCCc1ccc(O)cc1 [III-2, 5-(4-hydroxyphenyl)pentatonic acid] | significantly enhanced the activation |  |
| O=C(O)CCC(=O)c1ccc(O)cc1 [IV] | significantly enhanced the activation |  |
| NC(=O)CC[C@H](N)C(=O)O [L-gln, L-glutamine, reference compound] | had no effect | IRF pathway activation combined with PRR agonists [2]: had no effect |
